According to patent US8916612B2, “Agmatine containing dietary supplements, nutraceuticals, and foods” (priority 2008, dated 2014):

What was measured:
humans [1] = test: Open label dose-escalating safety and tolerability study of dietary agmatine sulfate capsules (Example I); format: in vivo, human; conditions: oral doses of up to 2.67 g/day for over 2 years
[2] = system: participants with lumbar disc-associated radiculopathy; test: Randomized, double-blind, placebo-controlled trial in lumbar disc-associated radiculopathy; format: in vivo, human; conditions: 2.670 g/day for 14 days
Excerpt: This recommendation is supported by recent clinical trials (Keynan O, Mirovsky Y, Dekel S, Gilad V H, Gilad G M. Safety and efficacy of dietary agmatine sulfate in lumbar disc-associated radiculopathy. An open label, dose-escalating study followed by a randomized, double-blind, placebo-controlled trial. Pain Med, (2010) in press). […] In the randomized, double-blind, placebo-controlled (RCT) trial, eligible participants received either placebo or agmatine sulfate (2.670 g/day for 14 days) in a double-blind fashion. Analysis was performed on 30 participants in the placebo and 31 in the agmatine sulfate arm. […] Secondary outcomes included assessments of safety and tolerability. […] While the severity of pain symptoms and general health status improved with time in both placebo and agmatine sulfate-treated groups, the improvements were more pronounced in the agmatine sulfate-treated group. […] Importantly, none of the participants reported worsening in their general health status.
Results, mean (±SEM, vertical lines) values are expressed as percent of baseline values. Asterisks indicate significant differences between the placebo- and agmatine sulfate-treated groups (p 0.033).

[3] = system: facial nerve crush in male Wistar rats; test: Vibrissae functional recovery after facial nerve crush following prior agmatine sulfate intake (Example III); format: in vivo, rat
Experimental: The experiment was performed at Assaf Harofeh Medical Center, Israel, with 4-month-old male Wistar rats (Harlan, Israel) kept under standard conditions in the Institute's vivarium according to the Institutional Animal Care and Use Committee approved protocols (see Example II above). […] rats were divided into 2 groups of 14 animals each, one group drank sterile water containing agmatine sulfate 5.3 g/l, while the other drank regular sterile drinking-water for a period of 21 days. On day 21 both groups were switched to drink regular tap water. In 7 rats from each group the facial nerve was crushed unilaterally while the other 7 were left unoperated. Surgery was performed under halothane anesthesia (1.5% in 100% 02) and the facial nerve was crushed unilaterally at the stylomastoid foramen for 20 seconds with a jeweler's forceps under the operating microscope.
Transection of the facial nerve, which innervates the upper and lower lips results in paralysis of the vibrissae (whiskers) on the operated side. Functional recovery was assessed by evaluation of vibrissae movement for up to 14 days postoperatively using the following arbitrary scale of 0 to 4:0, complete paralysis with vibrissae flattened backwardly; —1, slight vibrating motion; —2, mild proximal vibrating motion; —3 moderate motion of vibrissae and lips; 4, full motion of lower face and vibrissae. Results were evaluated by analysis of variance (ANOVA) procedure followed by Bonferroni post hoc testing and differences considered significant at p<0.05.
B. sterile water containing agmatine and unoperated (controls, semisolid circle). C. Regular sterile drinking-water and nerve crush (solid square). D. sterile water containing agmatine and nerve crush (solid triangle). Results are the mean (±SEM, vertical lines) values of 7 animals. *=p<0.001 comparing group C to group D values.

humans [4] = test: Open label dose-escalating safety and tolerability study of dietary agmatine sulfate capsules (Example I); format: in vivo, human; conditions: for Adverse Effects (no. of participants): Nausea and Diarrhea: 12 participants
Experimental: This study is based on administration to humans weighing 60 to 70 kg.
Agmatine sulfate was manufactured according to international standards ISO 9001. It was encapsulated under cGMP (current Good Manufacturing Practice) conditions in gelatin-glycerin capsules as the sole active ingredient of the dietary supplement and the capsules packaged in properly labeled plastic container bottles.
The study was performed at Tel-Aviv Sourasky Medical Center, Israel and approved by the Institutional Review Board (Trial Number: 05-302) and by the Israel Ministry of Health National Review Board (Trial Number: 20050479), and conducted in accordance with the Helsinki guidelines under current Good Clinical Practice (cGCP) and the International Conference on Harmonization (ICH) guidelines. All procedures were performed after participants had read, understood and signed the informed consent form. Eligibility of consenting participants was determined after medical history recording, comprehensive clinical examination, and laboratory tests of blood samples to ensure inclusion/exclusion criteria.
Inclusion Criteria: 1) Men and women 18-75 years of age, including also those diagnosed with spine skeletal pathologies causing nerve compression. 2) Women must be non-pregnant, non-lactating, or sterilized, or postmenopausal. 3) All participants must give a signed informed consent.
Exclusion Criteria: 1) Those with any significant clinical, medical or surgical condition, such as: cardiovascular, pulmonary, hepatic, renal, immune, endocrine, metabolic, digestive, malignancy, or allergic, and those with deviations from the normal laboratory test values. 2) Those with any neuromuscular diseases (other than spine skeletal pathologies causing nerve compression). 3) Those with any neurological diseases. 4) Those with any history of alcohol or substance abuse within the last 2 years. 5) Those with gastric ulcer history. 6) Those who took any experimental drug within 90 days prior to screening. 7) Women who are pregnant or breast feeding. 8) Those participating in other clinical trials.
At the starting day of the study eligible participants began taking the supplement and had the option of receiving concomitantly any conventional treatment [e.g. drug treatment or physiotherapy] as needed for their welfare, and this was recorded throughout the duration of the study. However, any other experimental drug or dietary supplement was disallowed.
Table 1 details the escalating doses and regimens taken by the consecutive cohorts. Following screening to ensure inclusion/exclusion criteria, 48 men and women, 28 to 70 years old were recruited consecutively to the study after they gave a signed informed consent. Eligible participants took 3 times a day, after meals (morning, noontime and evening), the specified daily dose of agmatine sulfate capsules. Each capsule contained 445 mg of agmatine sulfate (Table 1).
Before beginning and within 5 days after termination—and before the next cohort began taking the supplement—all cohort participants underwent thorough clinical evaluation and routine laboratory tests of blood samples to ascertain normal function of the cardiovascular, hepatic, renal, immune and metabolic systems.
In-person evaluations were performed at: 11-15 days, 22-25 days, 40-45 days after treatment starting day (day 1), and then telephone interview evaluations every 3-6 months for the duration of the trial. The flow chart (2) outlined in FIG. 2 illustrates the treatment and follow-up schedules as exemplified for a 10-day cohort. In addition, participants received a “participant diary” for self recording of any outstanding health related events during the treatment interval.
For the sake of privacy, all records and data were identified only by participants' code number. All “source data” documents were stored in individual patient files and kept at the clinical center by the principal investigator and copies are kept with the study sponsor. […]

male Wistar rats = test: Sub-chronic intake of high dose agmatine sulfate in the drinking water (Example II); format: in vivo, rat
Experimental: The experiment was performed at Assaf Harofeh Medical Center, Israel, according to the Institutional Animal Care and Use Committee approved protocol. Three-month-old male Wistar rats (Harlan, Israel) weighing 250±20 g were caged individually under standard vivarium conditions of temperature (22±2° C.), humidity (55-75%) and light (12 h light-dark cycle) with a free supply of food and water. Experimental animals (n=10) drank sterile water containing agmatine sulfate 5.3 g/l, while controls (n=10) drank regular sterile drinking-water for 95 days. Drinking-water containing agmatine sulfate have bitter taste.
Animal body weight and systolic blood pressure (SBP) as measured by tail-cuff plethysmography (IITC Life Science, Woodland Hills, Calif.) were measured at the starting day of the experiment (day 1) and at various intervals thereafter. General behavior, fur appearance and feces appearance were also assessed. Water consumption was measured daily. After 95 days, 5 animals of each group were deeply anesthetized ([…] sodium pentobarbital, intraperitoneal) and the stomach, kidney, heart and liver removed for gross inspection. The stomach was inspected for appearance of ulcers. The rest of the animals, in both the control and experimental groups, were all maintained on regular diet (without agmatine sulfate in the drinking-water) for additional 20 days and then killed (on the 115th day). Results were evaluated by analysis of variance (ANOVA) procedure. Differences were analyzed by 2-tailed t-test and values of p≦0.05 were considered statistical significant. For data normalization, differences were expressed as percent change of day 1 values.

[5] = 4th Cohort, 3.560 g/day for 21 days

For `N=C(N)NCCCCN.O=S(=O)(O)O` [agmatine sulfate], the Adverse effects (humans [1]) was “have not been associated with any adverse effects”, the “Adverse effects during the trial” value ([2]; 31 participants) was “no adverse effects were noted” and the “Improvement in general health status, SF-36 Total Score, compared to placebo” value ([2]; follow-up 15-20 day, p=0.013) was “statistically significant enhanced improvements”. The “Improvement in pain measures (Visual Analogue Scale) compared to placebo” value ([2]; follow-up 15-20 day, p=0.033) was “statistically significant enhanced improvements”, the “Day after injury at which nearly full recovery of vibrissae movement is achieved” value ([3]; controls: day 14) was 12 days and the “Increase in vibrissae motion as compared to controls (group C)” value ([3]; day 10 after injury, 5.3 g/l in drinking water for 21 days before crush) was 181.2%. The “Recovery of vibrissae movement” value ([3]; group D vs group C, p<0.001) was “significantly accelerated recovery of vibrissae movement”, the “Adverse Effects (no. of participants): Nausea and Diarrhea” value (humans [4]; 3rd Cohort, 3.560 g/day for 10 days) was 1 and the “Onset of diarrhea and nausea during treatment” value (humans [4]; 3.560 g/day) was 2 to 3 days. The “Time to disappearance of diarrhea and nausea after treatment cessation” value (humans [4]; 3.560 g/day) was no more than 2 days, the “Discontinuations - Due to Adverse Effects (no. of participants)” value (humans [4]; [5]) was 1 and the “Free Will Discontinuations (no. of participants)” value (humans [4]; [5]) was 1. The “Adverse Effects (no. of participants): Nausea and Diarrhea” value (humans [4]; [5]) was 2, the “Clinical examinations and laboratory analyses of blood samples” value (humans [4]; all 48 participants, 1.335-3.560 g/day) was “no abnormality in any parameter studied” and the “Number of participants who failed to complete the study” value (humans [4]; of 48 participants) was 2. The “Number of participants reporting mild-to-moderate side effects (diarrhea and nausea)” value (humans [4]; of 48 participants, all at 3.560 g/day) was 3, the Adverse effects (humans [4]; oral doses of up to 3.56 g/day) was “only mild, reversible diarrhea was observed” and the “General cage behavior, fur appearance and feces appearance” value (male Wistar rats; 95 days treatment) was “all normal”. The “Blood Pressure (% Change), percent of day 1” value (male Wistar rats; Day 1) was “(100) %”, the “Body Weight (% Change), percent of day 1” value (male Wistar rats; Day 1) was “(100) %” and the “Daily Drinking (% Change), percent of day 1” value (male Wistar rats; Day 1) was “(100) %”. The “Blood Pressure (% Change), percent of day 1” value (male Wistar rats; Day 21) was “(97.3) %”, the “Body Weight (% Change), percent of day 1” value (male Wistar rats; Day 21) was “(97.6) %” and the “Daily Drinking (% Change), percent of day 1” value (male Wistar rats; Day 21) was “(72.1) %”. The “Blood Pressure (% Change), percent of day 1” value (male Wistar rats; Day 95) was “(96.9) %”, the “Body Weight (% Change), percent of day 1” value (male Wistar rats; Day 95) was “(102.2) %” and the “Daily Drinking (% Change), percent of day 1” value (male Wistar rats; Day 95) was “(83.9) %”. The “Blood Pressure (% Change), percent of day 1” value (male Wistar rats; Day 115) was “(99.1) %”, the “Body Weight (% Change), percent of day 1” value (male Wistar rats; Day 115) was “(103.9) %” and the “Daily Drinking (% Change), percent of day 1” value (male Wistar rats; Day 115) was “(99.7) %”.
